# From patent publication US20260103473A1 (Avanc Pharmaceutical Co., Ltd., priority 2022, published 2026)
# Where a name gives a salt, the structure may show the parent alone.
# Tests used:
# Format in all cases: physicochemical
# [1] = Description of crystal form A: hygroscopicity and solubility in solvents
# [2] = Moisture absorption study of crystal forms by dynamic vapor sorption (DVS) with XRPD afterwards; details: for weight increase at 80% RH during the adsorption process / weight increase at 95% RH: DVS, with reference to the mass at 50% RH; for XRPD pattern after DVS testing: after humidity cycle 50%-95%-50%
# Procedure: Dynamic vapor sorption and desorption analysis of crystal forms were performed using DVS Intrinsic (SMS, UK) to evaluate the hygroscopicity of the crystal forms. The gradient mode was used for the test. The humidity change was 50%-95%-50%. The humidity change amount of each gradient was 15%. The gradient endpoint was determined in the dm/dt manner, with dm/dt less than 0.002% and maintained for 10 minutes as the gradient endpoint, or the maximum maintenance time of each gradient was 60 min. After the test was completed, XRPD analysis was performed on the sample to confirm whether the solid form changed.
# [3] = Stability study of crystal forms (XRPD characterization); details: high temperature (60° C.), high humidity (25° C./92.5% RH), illumination (25° C./4500 Lux), accelerated (40° C./75% RH); up to 15 days
# Procedure: Stability studies under conditions of high temperature (60° C.), high humidity (25° C./92.5% RH), illumination (25° C./4500 Lux), and accelerated condition (40° C./75% RH) were performed on the crystal forms of the compound of formula (I). Samples were taken for XRPD characterization on the 7th and 15th days respectively.
# The crystal form G was stored at room temperature for 1 day.
# [4] = Dynamic solubility test in biological media and water; details: for solubility at 0.5 h / solubility at 2 h / solubility at 24 h: thermodynamic from solid
# Description: Wherein, FaSSIF could be used to simulate the intestinal fluid in the small intestine in the human pre-prandial hunger state; FeSSIF could be used to simulate the intestinal fluid in the small intestine in the human post-prandial satiety state; FaSSGF could be used to simulate the stomach in the empty stomach in the human hunger state.
# [5] = Hygroscopicity of salts of the compound of formula (I) (weight gain at 95% humidity); details: humidity 50% raised to 95% in increments of 15%, 60 min each
# Procedure: The compound of formula (I) was placed in a humid environment, wherein the initial humidity of the environment was 50%, and the humidity was increased to 95% in increments of 15%. The maintenance time for each humidity gradient was 60 min. After the ambient humidity was maintained at 95% for 60 min, the weight gain of each salt form was tested to determine the hygroscopicity of the corresponding salt form.
# According to the test procedures of Test Example 2, the solubility of the monocitrate salt and dicitrate salt of the compound of formula (I) were respectively tested.
# [6] = Test of solubility of salts of the compound of formula (I) in water; details: room temperature, Table 10; for Solution state: after addition of water; for solubility: thermodynamic from solid, water, monocitrate vs dicitrate
# Procedure: About 4-20 mg of salt of the compound of formula (I) was weighed, and the salt was added to the EP tube. A certain amount of solvent was added successively at room temperature. The solution was stirred, and it was observed whether the solid was completely dissolved. If the solid had not been completely dissolved after 10.0 mL of solvent was added, the experiment was stopped. The solubility of the compound in the solvent was estimated based on the volume of solvent used when the solid was completely dissolved.
# [7] = monocitrate vs dicitrate, Table 11
compound,measurement,setting,value
CN1CCN(C2CCN(c3ccc(Nc4ncc5sc(C(=O)N(C)C)c(C6CCCC6)c5n4)nc3)CC2)CC1 [crystal form A],hygroscopicity (description),[1],slightly hygroscopic
same,solubility (description),[1]; 0.1 mol/L hydrochloric acid solution,readily soluble
same,solubility (description),[1]; Water,readily soluble
same,solubility (description),[1]; acetic acid,readily soluble
same,solubility (description),[1]; ethanol,nearly insoluble
same,solubility (description),[1]; methanol,slightly soluble
same,weight increase at 80% RH during the adsorption process,[2],0.25%
same,weight increase at 95% RH,[2],0.64%
same,XRPD pattern after DVS testing,[2],did not change significantly
same,crystal form transformation by XRPD,[3],without any crystal form transformation occurring
same,XRPD of the remaining solid,[4]; FaSSGF,No solid remained
same,Final pH,"[4]; FaSSGF, initial pH 1.6",2.5
same,XRPD of the remaining solid,[4]; FaSSIF,No solid remained
same,Final pH,"[4]; FaSSIF, initial pH 6.5",4.3
same,XRPD of the remaining solid,[4]; FeSSIF,No solid remained
same,Final pH,"[4]; FeSSIF, initial pH 5.0",4.6
same,Final pH,[4]; Water,3.8
same,XRPD of the remaining solid,[4]; Water,No solid remained
same,solubility at 0.5 h,"[4]; fassgf or other biorelevant, FaSSGF, pH 1.6, 0.5 h",> 5470 µg/mL
same,solubility at 2 h,"[4]; fassgf or other biorelevant, FaSSGF, pH 1.6, 2 h",> 5480 µg/mL
same,solubility at 24 h,"[4]; fassgf or other biorelevant, FaSSGF, pH 1.6, 24 h",> 5380 µg/mL
same,solution state after suspension for 24 h,"[4]; four media (FaSSIF, FeSSIF, FaSSGF, water)",still clear
same,time to dissolve,"[4]; suspended in four media (FaSSIF, FeSSIF, FaSSGF, water)",≤ 0.5 h
same,solubility at 0.5 h,"[4]; FaSSIF, pH 6.5, 0.5 h",> 5150 µg/mL
same,solubility at 2 h,"[4]; FaSSIF, pH 6.5, 2 h",> 5110 µg/mL
same,solubility at 24 h,"[4]; FaSSIF, pH 6.5, 24 h",> 5180 µg/mL
same,solubility at 0.5 h,"[4]; FeSSIF, pH 5.0, 0.5 h",> 5460 µg/mL
same,solubility at 2 h,"[4]; FeSSIF, pH 5.0, 2 h",> 5480 µg/mL
same,solubility at 24 h,"[4]; FeSSIF, pH 5.0, 24 h",> 5470 µg/mL
same,solubility at 0.5 h,"[4]; Water, 0.5 h",> 5540 µg/mL
same,solubility at 2 h,"[4]; Water, 2 h",> 5450 µg/mL
same,solubility at 24 h,"[4]; Water, 24 h",> 5480 µg/mL
CN1CCN(C2CCN(c3ccc(Nc4ncc5sc(C(=O)N(C)C)c(C6CCCC6)c5n4)nc3)CC2)CC1 [Dicitrate salt],Weight gain at 95% humidity,[5]; [7],0.64%
same,Solution state,[6],clear
same,solubility,[6],> 33000 µg/mL
CN1CCN(C2CCN(c3ccc(Nc4ncc5sc(C(=O)N(C)C)c(C6CCCC6)c5n4)nc3)CC2)CC1.O=C(O)CC(O)(CC(=O)O)C(=O)O [Monocitrate salt],Weight gain at 95% humidity,[5]; [7],3.45%
same,Solution state,[6],clear
same,solubility,[6],> 33000 µg/mL
CN1CCN(C2CCN(c3ccc(Nc4ncc5sc(C(=O)N(C)C)c(C6CCCC6)c5n4)nc3)CC2)CC1 [crystal form B],weight increase at 80% RH during the adsorption process,[2],0.24%
same,weight increase at 95% RH,[2],0.69%
same,XRPD pattern after DVS testing,[2],did not change significantly
same,crystal form transformation by XRPD,[3],did not undergo crystal form transformation
L-Tartrate,Weight gain at 95% humidity,[5]; Table 9,8.18%
CN1CCN(C2CCN(c3ccc(Nc4ncc5sc(C(=O)N(C)C)c(C6CCCC6)c5n4)nc3)CC2)CC1 [crystal form C],weight increase at 80% RH during the adsorption process,[2],0.42%
same,weight increase at 95% RH,[2],3.45%
same,XRPD pattern after DVS testing,[2],did not change significantly
same,crystal form transformation by XRPD,[3],did not undergo crystal form transformation
CN1CCN(C2CCN(c3ccc(Nc4ncc5sc(C(=O)N(C)C)c(C6CCCC6)c5n4)nc3)CC2)CC1 [crystal form D],weight increase at 80% RH during the adsorption process,[2],0.85%
same,weight increase at 95% RH,[2],4.45%
same,XRPD pattern after DVS testing,[2],did not change significantly
same,crystal form transformation by XRPD,[3],did not undergo significant crystal form transformation
